According to patent US20160100574A1, “Antimicrobial Compositions Comprising Glyceryl Ethers” (SYMRISE AG, priority 2013, published 2016):

Key:
Type in all cases: cell-based
[1] = test system: A. brasiliensis; assay: Challenge test / synergy (Kull equation), A. brasiliensis
Procedure: (§1) 1% b.w. of heptylglycerin, benzylglycerin and phenylpropylglycerin, respectively was added to an aqueous emulsion of Glyceryl stearyl citrate (Dracorin CE). The formulations were tested in standard challenge tests against various micro-organisms.
To calculate the synergism between compounds of formula (I) and other antimicrobial actives, the Kull equation^1 2 was used
SI=(Cmixture×PA)/CA+(Cmixture×PB)/CB (I)
where SI is the Synergy Index according to Kull^1), 2) CA is the cell count for substance A CB is the cell count for substance B Cmixture is the cell count for the mixture of substances A and B PA is the proportion of the substance A in the mixture PB is the proportion of the substance B in the mixture. ^1 Kull, F. C., Eismann, P. C., Sylvestrowicz, H. D., and R. L. Mayer (1961). Mixtures of Quaternary Ammonium Compounds and Long-chain Fatty Acids as Antifungal Agents. Applied Microbiology 9, 538-541.^2 Steinberg, D.C. (2000). Measuring Synergy. Cosmetics & Toiletries 115 (11), 59-62.
Colony counts of <100 were arbitrarily set to 100, in order to allow for synergy calculations with the above equation. The abbreviation “n.a.” means not applicable.

[2] = test system: Staphylococcus aureus; assay: Minimum inhibitory concentration according to DIN 58940, Staphylococcus aureus; settings: single antimicrobial agents
Excerpt: (§2) In order to calculate the Synergy Index SI with MIC values, the Kull equation is used as follows:
(§3) SI=(MICmixture×PA)/MICA+(MICmixture×PB)/MICB (II)
(§4) where SI is the Synergy Index according to Kull^1), 2) MICA is the MIC value for substance A MICB is the MIC value for substance B MICmixture is the MIC value for the mixture of substances A and B PA is the proportion of the substance A in the mixture PB is the proportion of the substance B in the mixture. b) Mixtures containing 3 components
(§5) SI=(MICmixture×PA)/MICA+(MICmixture×PB)/MICB+(MICmixture×PC)/MICC
(§6) where SI is the Synergy Index according to Kull^1), 2) MICA is the MIC value for substance A MICB is the MIC value for substance B MICC is the MIC value for substance C MICmixture is the MIC value for the mixture of substances […] PA is the proportion of the substance A in the mixture PB is the proportion of the substance B in the mixture. PC is the proportion of the substance C in the mixture.

[3] = test system: Candida albicans; assay: Minimum inhibitory concentration according to DIN 58940, Candida albicans; settings: single antimicrobial agents
Excerpt: as §2, §3, §4, §5, §6

[4] = test system: Aspergillus brasiliensis; assay: Minimum inhibitory concentration according to DIN 58940, Aspergillus brasiliensis; settings: single antimicrobial agents
Excerpt: as §2, §3, §4, §5, §6

[5] = test system: Pseudomonas aeruginosa; assay: Minimum inhibitory concentration according to DIN 58940, Pseudomonas aeruginosa; settings: single antimicrobial agents
Excerpt: as §2, §3, §4, §5, §6

[6] = test system: Escherichia coli; assay: Minimum inhibitory concentration according to DIN 58940, Escherichia coli; settings: single antimicrobial agents
Excerpt: as §2, §3, §4, §5, §6

[7] = test system: C. albicans; assay: Challenge test of preserved emulsion, C. albicans
Procedure: as §1, with “micro-organisms. The results are shown in Table 1 and indicate the high activity of the actives against yeast and bacteria, but not against mould.” for “micro-organisms.”

[8] = test system: E. coli; assay: Challenge test of preserved emulsion, E. coli
Procedure: as §1, with “micro-organisms. The results are shown in Table 1 and indicate the high activity of the actives against yeast and bacteria, but not against mould.” for “micro-organisms.”

[9] = test system: P. aeruginosa; assay: Challenge test of preserved emulsion, P. aeruginosa
Procedure: as §1, with “micro-organisms. The results are shown in Table 1 and indicate the high activity of the actives against yeast and bacteria, but not against mould.” for “micro-organisms.”

[10] = test system: S. aureus; assay: Challenge test of preserved emulsion, S. aureus
Procedure: as §1, with “micro-organisms. The results are shown in Table 1 and indicate the high activity of the actives against yeast and bacteria, but not against mould.” for “micro-organisms.”

[11] = Table 2, day 0, 1.0% total active
[12] = Table 2, day 0, relative to day 0, 1.0% total active
[13] = Table 2, day 2, 1.0% total active
[14] = Table 2, day 2, relative to day 0, 1.0% total active
[15] = Table 2, day 7, 1.0% total active
[16] = Table 2, day 7, relative to day 0, 1.0% total active
[17] = Table 2, day 14, 1.0% total active
[18] = Table 2, day 14, relative to day 0, 1.0% total active
[19] = Table 2, day 28, 1.0% total active
[20] = Table 2, day 28, relative to day 0, <100 set to 100, 1.0% total active
[21] = Day 14, 1% b.w. active in aqueous emulsion of Glyceryl stearyl citrate (Dracorin CE)
[22] = Day 28, 1% b.w. active in aqueous emulsion of Glyceryl stearyl citrate (Dracorin CE)
[23] = Day 0, 1% b.w. active in aqueous emulsion of Glyceryl stearyl citrate (Dracorin CE)
[24] = Day 2, 1% b.w. active in aqueous emulsion of Glyceryl stearyl citrate (Dracorin CE)
[25] = Day 7, 1% b.w. active in aqueous emulsion of Glyceryl stearyl citrate (Dracorin CE)

CC(=O)c1ccc(O)cc1 [4HAP, 4-hydroxyacetophenone]
Colony counts day 0 [1, 11]: 300.000 cfu/g formulation
Relative colony counts day 0 [1, 12]: 1.0000
Colony counts day 2 [1, 13]: 56.000 cfu/g formulation
Relative colony counts day 2 [1, 14]: 0.1867
Colony counts day 7 [1, 15]: 1.900 cfu/g formulation
Relative colony counts day 7 [1, 16]: 0.0063
Colony counts day 14 [1, 17]: 1.900 cfu/g formulation
Relative colony counts day 14 [1, 18]: 0.0063
Colony counts day 28 [1, 19]: <100 cfu/g formulation
Relative colony counts day 28 [1, 20]: 0.0003
Colony counts day 0 ([1]; Table 3, day 0, 1.0% total active): 300.000 cfu/g formulation
Relative colony counts day 0 ([1]; Table 3, day 0, relative to day 0, 1.0% total active): 1.0000
Colony counts day 2 ([1]; Table 3, day 2, 1.0% total active): 56.000 cfu/g formulation
Relative colony counts day 2 ([1]; Table 3, day 2, relative to day 0, 1.0% total active): 0.1867
Colony counts day 7 ([1]; Table 3, day 7, 1.0% total active): 1.900 cfu/g formulation
Relative colony counts day 7 ([1]; Table 3, day 7, relative to day 0, 1.0% total active): 0.0063
Colony counts day 14 ([1]; Table 3, day 14, 1.0% total active): 1.900 cfu/g formulation
Relative colony counts day 14 ([1]; Table 3, day 14, relative to day 0, 1.0% total active): 0.0063
Colony counts day 28 ([1]; Table 3, day 28, 1.0% total active): <100 cfu/g formulation
Relative colony counts day 28 ([1]; Table 3, day 28, relative to day 0, <100 set to 100, 1.0% total active): 0.0003
MIC values Staphylococcus aureus [2]: 6000 ppm
MIC values Candida albicans [3]: 6000 ppm
MIC values Aspergillus brasiliensis [4]: 4000 ppm
MIC values Pseudomonas aeruginosa [5]: 4000 ppm
MIC values E. coli [6]: 4000 ppm

OCC(O)COCc1ccccc1 (stereo not drawn) [Benzylglycerin]
colony counts Day 14 [7, 21]: 0 cfu/g formulation
colony counts Day 28 [7, 22]: 0 cfu/g formulation
colony counts Day 0 [8, 23]: 250.000 cfu/g formulation
colony counts Day 2 [8, 24]: 0 cfu/g formulation
colony counts Day 7 [8, 25]: 0 cfu/g formulation
colony counts Day 14 [8, 21]: 0 cfu/g formulation
colony counts Day 28 [8, 22]: 0 cfu/g formulation
colony counts Day 0 [9, 23]: 210.000 cfu/g formulation
colony counts Day 2 [9, 24]: 0 cfu/g formulation
colony counts Day 7 [9, 25]: 0 cfu/g formulation
colony counts Day 14 [9, 21]: 0 cfu/g formulation
colony counts Day 28 [9, 22]: 0 cfu/g formulation
colony counts Day 0 [10, 23]: 240.000 cfu/g formulation
colony counts Day 2 [10, 24]: 700 cfu/g formulation
colony counts Day 7 [10, 25]: <100 cfu/g formulation
colony counts Day 14 [10, 21]: 0 cfu/g formulation
colony counts Day 28 [10, 22]: 0 cfu/g formulation
colony counts Day 0 [1, 23]: 360.000 cfu/g formulation
colony counts Day 2 [1, 24]: 490.000 cfu/g formulation
colony counts Day 14 [1, 21]: 300.000 cfu/g formulation
colony counts Day 28 [1, 22]: 30.000 cfu/g formulation
MIC ([2]; Staphylococcus aureus): 20 mg/mL
MIC ([3]; Candida albicans): 20 mg/mL
MIC ([4]; Aspergillus brasiliensis): 20 mg/mL
MIC ([5]; Pseudomonas aeruginosa): 20 mg/mL
MIC ([6]; Escherichia coli, read-out: MIC values E. coli): 10 mg/mL

CCCCC(CC)COCC(O)CO (stereo not drawn) [Ethylhexylglycerin]
Colony counts day 0 [1, 11]: 315.000 cfu/g formulation
Relative colony counts day 0 [1, 12]: 1.0000
Colony counts day 2 [1, 13]: 159.000 cfu/g formulation
Relative colony counts day 2 [1, 14]: 0.5048
Colony counts day 7 [1, 15]: 150.000 cfu/g formulation
Relative colony counts day 7 [1, 16]: 0.4762
Colony counts day 14 [1, 17]: 304.000 cfu/g formulation
Relative colony counts day 14 [1, 18]: 0.9635
Colony counts day 28 [1, 19]: 304.000 cfu/g formulation
Relative colony counts day 28 [1, 20]: 0.9635
MIC values Staphylococcus aureus [2]: 2000 ppm
MIC values Candida albicans [3]: 2000 ppm
MIC values Aspergillus brasiliensis [4]: 2000 ppm
MIC values Pseudomonas aeruginosa [5]: >20000 ppm
MIC values E. coli [6]: 2500 ppm
